Measurements reported in patent US10183047B2, “Chromium-containing compositions in combination with Phyllanthus emblica and shilajit having synergistic effects for improving endothelial function and cardiovascular health” (Natreon, Inc., priority 2014, dated 2019).

Key:
Assay type in all cases: in vivo, human
endothelial function = assay: Reflection index (RI), salbutamol challenge test, metabolic syndrome subjects; conditions: for RI: MS, 400 mcg; for Absolute change in RI / RI, % Post Tt / RI, % Pre Tt: metabolic syndrome subjects (Example 4), chromium products 400 mcg; for Absolute change in RI / RI, % Post Tt: after 12 weeks of treatment; for RI, % Pre Tt: pre-treatment
Source text: A salbutamol (albuterol) challenge test employing digital volume plethysmography was used to assess endothelial function as reported by Chowienczyk et al., “Photoplethysmographic assessment of pulse wave reflection: blunted response to endothelium dependant beta 2-adrenergic vasodilation in type 2 diabetes mellitus,” J. Am. Coll. Cardiol. (1999 December) 34(7):2007-14; and Naidu, et al., “Comparison of two β2 adrenoceptor agonists by different routes of administration to assess human endothelial function,” Indian J. Pharmacol. (2007) 39:168-9. The patients were examined in supine position after 5 minutes of rest. A digital volume pulse (DVP) was obtained using a photo plethysmograph (Pulse Trace PCA2, PT200, Micro Medical, Gallingham, Kent, UK) transmitting infrared light at 940 nm, placed on the index finger of the right hand. The signal from the plethysmograph was digitized using a 12 bit analogue to digital converter with a sampling frequency of 100 Hz. DVP waveforms were recorded over 20 second period and the height of the late systolic/early diastolic portion of the DVP was expressed as a percentage of the amplitude of the DVP to yield the reflection index (RI), per the procedure described in detail by Millasseau et al., “Determination of age related increases in large artery stiffness by digital pulse contour analysis,” Clinical Science (2002) 103: 371-377. Three DVP recordings were taken, and measurements of reflection index (RI) were calculated and the mean value was determined. Patients were then administered 400 μg of salbutamol by inhalation. After 15 minutes three measurements of RI were obtained again and the difference in mean RI before and after administration of salbutamol was used for assessing endothelial function. A change of ≤6% in RI post-salbutamol was considered as endothelial dysfunction.
Patients included in the study, were of either gender, aged 30-68 years, having endothelial dysfunction defined as ≤6% change in reflection index (RI) on post salbutamol challenge test and central obesity as defined by The International Diabetes Federation guidelines, dated 2006, and any two of the following conditions:
After screening, all the eligible subjects were randomized to receive either one of the three treatments orally for duration of 12 weeks: group 1—one capsule of Crominex®3+ 200 mcg once daily; group 2—one capsule 400 mcg once daily; group 3—one capsule of Placebo once daily.
(§1) Subjects were reviewed for follow up at 4 weeks, 8 and 12 weeks of therapy. At each visit they were evaluated for efficacy and safety. Pharmacodynamic evaluation for endothelial function was conducted at baseline and end of treatment. Blood samples were collected for evaluation of biomarkers before and at end of treatment. Safety lab investigations for hematological, hepatic and renal biochemical parameters were conducted before and at the end of the study and also as and when required (in case of any adverse drug reaction (ADR)). Subjects were enquired for the presence of ADR and the same was recorded in the case report form. Compliance to therapy was assessed by pill count method.
(§2) Assessment of endothelial function, biomarkers, safety parameters and primary and secondary efficacy parameters and data analysis were performed as described under the study with type 2 diabetic subjects in Example 1.
(§3) When the results with Crominex® 3+ in the above two examples were highly significant, especially with the 400 mcg once daily dose in type 2 diabetics, two more clinical studies (EXAMPLES 3 & 4) were conducted at the same institute, following the same methodology as described earlier, on the individual components of Crominex® 3+, i.e., chromium chloride and Phyllanthus emblica+Shilajit, and other chromium supplements available in the market, i.e., chromium picolinate, chromium polynicotinate and chromium dinicocysteinate, in type 2 diabetics as well as in subjects with metabolic syndrome symptoms.

[1] = tested on: Glycosylated Hemoglobin A1c (HbA1c); assay: Glycosylated hemoglobin A1c, type 2 diabetics; conditions: for HbA1c (Abs.): DM, 400 mcg, absolute change; for Absolute change in HbA1c / HbA1c Post Tt / HbA1c Pre Tt: type 2 diabetics (Example 3), chromium products 400 mcg; for Absolute change in HbA1c: after 12 weeks treatment; for HbA1c Post Tt: post-treatment, 12 weeks; for HbA1c Pre Tt: pre-treatment
Description: The present clinical study is a prospective, randomized, double blind, placebo-controlled study. Patients of either sex, aged 30-65 years, fasting plasma glucose of 110-126 mg/dl, a glycosylated hemoglobin (HbA1c) between 6.5% and 8% and taking stable dose of anti-diabetic treatment (metformin 1500-2000 mg/day) for the past 8 weeks prior to the screening visit; and having endothelial dysfunction defined as ≤6% change in reflection index (RI) on post salbutamol challenge test were included in the study. Patients with severe uncontrolled hyperglyceamia, uncontrolled hypertension, cardiac arrhythmia, impaired hepatic or renal function, history of malignancy or stroke, smoking, chronic alcoholism, any other serious disease requiring active treatment and treatment with any other herbal supplements, were excluded from the study.
After screening, all the eligible subjects were randomized to receive either one of the three treatments orally for duration of 12 weeks—Group1—one capsule of Crominex®3+, 200 mcg once daily, Group 2—one capsule Crominex®3+, 400 mcg once daily; Group 3—one capsule of placebo once daily.
as §1, with “Subjects were required for follow” for “Subjects were reviewed for follow”, “up at 4, 8 and” for “up at 4 weeks, 8 and”, “conducted at every visit. Blood samples” for “conducted at baseline and end of treatment. Blood samples”, “and at the end of” for “and at end of”, “drug reaction (ADR). Subjects were” for “drug reaction (ADR)). Subjects were”
All the subjects had undergone complete physical examination, safety lab evaluations at baseline and at the end of the treatment. Samples were collected after an overnight fast of 12 hrs after the last dose of medication for determination of hemoglobin, glycosylated hemoglobin (HbA1c), blood urea, serum creatinine, liver function, lipid profile (Total cholesterol, High density lipoprotein cholesterol (HDL-C), low density lipoprotein cholesterol (LDL-C) using appropriate standard techniques.
as §3

[2] = tested on: high sensitivity C-reactive protein (hsCRP); assay: hsCRP by ELISA, metabolic syndrome subjects; set-up: hsCRP Pre Tt / hsCRP Post Tt: unit not given here; conditions: for hsCRP: MS, 400 mcg; for Mean percentage change in hsCRP / hsCRP Post Tt / hsCRP Pre Tt: metabolic syndrome subjects (Example 4), chromium products 400 mcg; for Mean percentage change in hsCRP: after 12 weeks treatment; for hsCRP Post Tt: after 12 weeks of treatment; for hsCRP Pre Tt: pre-treatment
Description: Nitric oxide, MDA, Glutathione and levels were estimated spectrophotometrically as follows. Malondialdehyde (MDA) levels were determined as described in Vidyasagar, et al., “Oxidative stress and antioxidant status in acute organophosphorous insecticide poisoning,” Indian J. Pharmacol. (April 2004) 36(2): 76-79. Glutathione levels were determined as described in G. L. Ellman, Arch. Biochem. Biophys. (1959) 82: 70-77 (original determination). Nitric oxide levels were estimated spectrophotometrically as described in Miranda, et al., “A Rapid, Simple Spectrophotometric Method for Simultaneous Detection of Nitrate and Nitrite,” NITRIC OXIDE: Biology and Chemistry (2001) Vol. 5, No. 1, pp. 62-71. hsCRP (high sensitivity C-reactive protein) was determined by ELISA method.
Patients included in the study, were of either gender, aged 30-68 years, having endothelial dysfunction defined as ≤6% change in reflection index (RI) on post salbutamol challenge test and central obesity as defined by The International Diabetes Federation guidelines, dated 2006, and any two of the following conditions: […]
as §1, §2, §3

| Molecule | RI (endothelial function) [%] | Absolute change in RI (endothelial function) | RI, % Post Tt (endothelial function) | RI, % Pre Tt (endothelial function) | HbA1c (Abs.) [1] | Absolute change in HbA1c [1] | HbA1c Post Tt [1] [NS %] | HbA1c Pre Tt [1] [%] | hsCRP [2] [%] | Mean percentage change in hsCRP [2] [%] | hsCRP Post Tt [2] | hsCRP Pre Tt [2] |
| --- | --- | --- | --- | --- | --- | --- | --- | --- | --- | --- | --- | --- |
| O.O.O.O.O.O.[Cl][Cr]([Cl])[Cl] [Chromium chloride, Chromium chloride (CrCl3.6H2O)] | −0.1 | −0.10 ± 1.34 #@ % | −3.43 ± 1.49 NS % | −3.06 ± 1.98% | −0.02 | −0.02 ± 0.10 #NS % | 6.89 ± 0.16 | 6.91 ± 0.16 | −11 | −10.99 ± 3.29 | – | – |
| chromium picolinate | −3.25 | −3.25 ± 0.98 #@NS % | −6.45 ± 0.40 % | – | −0.02 | −0.02 ± 0.08 #NS % | 7.03 ± 0.15 | 7.05 ± 0.11 | −19.45 | −19.45 ± 2.98 | 2.15 ± 0.40 | 2.67 ± 0.44 |
| chromium dinicocysteinate | −0.98 | −0.98 ± 0.76 #@NS % | −4.58 ± 0.89 @ % | −3.55 ± 1.09 ^ % | −0.01 | −0.01 ± 0.07 #NS % | 7.10 ± 0.08 | 7.11 ± 0.08 | −13.76 | −13.76 ± 4.64 | 2.24 ± 0.49 | 2.58 ± 0.48 |
| chromium polynicotinate | −1.51 | −1.51 ± 1.78 #@NS % | −3.85 ± 0.86 @ % | −2.39 ± 2.18 ^ % | −0.01 | 0.01 ± 0.10 #NS % | 7.09 ± 0.13 | 7.08 ± 0.08 | −12.34 | −12.34 ± 2.16 | 2.42 ± 0.54 | 2.76 ± 0.58 |
